Source: patent US20230285280A1, “A DEVICE FOR USE IN THE DELIVERY OF AN ACTIVE AGENT” (ROYAL COLLEGE OF SURGEONS IN IRELAND, priority 2020, published 2023)

Test: Active agent release from scaffold or scaffold+matrix in PBS at 37° C.
Type: physicochemical
Procedure: Release of nanoparticle-encapsulated active agent (either pirfenidone or prednisolone) from a matrix and release of active agent from a scaffold was assessed in the same manner. In short, one sample (of either a printed mesh (scaffold) or mesh+gel (scaffold and matrix)) per 1.5 mL eppendorf tube was incubated in 1 mL of PBS at 37° C. under agitation in a heated water bath. The release buffer was completely exchanged at selected time points of T=4 hrs, T=24 hrs, T=48 hrs, T=1 week, T=2 weeks, T=3 weeks, and T=4 weeks, T=6 weeks, T=8 weeks, T=10 weeks, T=12 weeks with samples stored at -20° C. until analysis. Release studies were undertaken for up to 28 days and released active agent concentrations were determined via extrapolation from a standard curve. Blank scaffolds (containing no active agent) were tested and readings were subtracted as an additional background control. Samples containing pirfenidone were analysed at 317 nm and samples containing prednisolone were analysed at 245 nm. Using either 3D drug printing or nanoparticle incorporation, it was possible to achieve a rapid release of active agent in the first 24 hours as well as a continuous release of drug over a 28 day period (FIG. 19).

Structure (SMILES)	daily and cumulative prednisolone drug release (from 3D printed PCL scaffolds with no surrounding matrix, FIG. 10)	cumulative prednisolone release (from nanoparticles in a freeze-dried scaffold and hyaluronic acid matrix, FIG. 11)	pirfenidone release when scaffold combined with the hyaluronic acid matrix (higher (50 kDa) molecular weight PCL scaffold, in the presence of the hydrated matrix, FIG. 9B)	pirfenidone release when scaffold combined with the hyaluronic acid matrix (lower molecular weight PCL scaffold, added to the matrix, FIG. 9A)
C[C@]12C=CC(=O)C=C1CC[C@@H]1[C@@H]2[C@@H](O)C[C@@]2(C)[C@H]1CC[C@]2(O)C(=O)CO [prednisolone, 11β-11,17,21-Trihydroxypregna-1,4-diene-3,20-dione]	biphasic release up to 28 days	rapid and sustained release		
Cc1ccc(=O)n(-c2ccccc2)c1 [pirfenidone, 5-Methyl-1-phenylpyridin-2-one]			negligible difference	release was slowed
